81 compounds from paper PMC12040169 (PLOS Biology, 2025) can be followed below.

This data set is described as follows: in vitro. The conditions noted are these: human, hela cells, % viability.

The structures appear in SMILES notation.

Regarding `Cn1c(=O)oc2ccc(C(=O)N3CCn4nc(CO)cc4C3)cc21` [CBK306821], the viability (usually a read-out of living cells in per cent, often relative to untreated cells) at 28.5 h, 10 µM was 85.6%. Still for that read-out and setting: in the case of `O=C(O)c1cccc(N2C(=O)c3cccc4c(C(=O)c5ccccc5)ccc(c34)C2=O)c1` [CBK299809] it was 74.2%; in that of `O=c1c2ccccc2nc2c3ccccc3c(NCc3ccccn3)nn12` [CBK265964], 89.3%; in that of `O=C(O)CSc1nnc2ccc(C(F)(F)F)cn12` [CBK018930], 81.3%. On to `COc1ccc(Cl)cc1N1CCN(Cc2ccc(C(C)C)cc2)CC1` [CBK126407], for which the viability at 28.5 h, 10 µM came to 97.6%. With `CN(C)CCN1CCN(c2cncc(-c3cccnc3)n2)CC1` [CBK065416], the viability at 28.5 h, 10 µM worked out at 93.2%. Regarding `CC(=O)Nc1cccc(-n2nnnc2SCC2CCCN(C)C2)c1` (stereo not drawn) [CBK305294], the viability at 28.5 h, 10 µM was found to be 108%. On the same count and under the same terms, the figure for `O=C(c1ccccc1)N1C[C@H](c2ccc(F)cc2)[C@H]2CN(CCc3ccccc3)CC[C@H]21` [CBK286291] is 98.2%.

`CC(C)(C)NCC(O)CO/N=C(/c1ccncc1)c1ccc(Br)cc1` (stereo not drawn) [CBK023914G]: the viability at 28.5 h, 10 µM amounted to 95.7%. On the same count and under the same terms, the figure for `Cc1cc(S(=O)(=O)N(c2ccc(C(C)(C)C)cc2)C2CCNCC2)c(C)s1` [CBK165075T] is 105%; for `Cn1nnnc1-c1cccc(NC(=O)c2ccc(Oc3ccccc3)cc2)c1` [CBK297872] it is 81.6%.

Take `Cc1cc(CSc2cccc(F)c2)no1` [CBK002916]: the viability at 28.5 h, 10 µM was 97%. The same measure, in the same setting: in the case of `Cc1ccc(N)c(C(=O)CCCCC(=O)O)c1` [CBK260970] it was 90.5%; in that of `CC(=O)NS(=O)(=O)c1ccc(NC(=O)/C=C/c2cccc([N+](=O)[O-])c2)cc1` [CBK300492], 88.6%.

For the compound `CC(C)(CNC(=O)Cn1cccc(C(=O)Nc2ccc(F)cc2)c1=O)c1ccccc1F` [CBK286067], the viability at 28.5 h, 10 µM was 97.4%. On to `COc1ccc(Oc2nccnc2N2CCN(CC3CCCCC3)CC2)cc1OC` [CBK083064T], for which the viability at 28.5 h, 10 µM came to 98.6%. For `Clc1ccc(COc2cccc3c2CCCC3)cn1` [CBK002634], the viability at 28.5 h, 10 µM was 102%. With `CCn1c(=O)n(CC2(O)CCCOC2)c2cc(S(=O)(=O)N(C)C)ccc21` (stereo not drawn) [CBK304788], the viability at 28.5 h, 10 µM amounted to 90.6%. The same measure, in the same setting: in the case of `CSCCC(=O)N1CCC(Cn2cncn2)(C2CCCCC2)CC1` [CBK136799] it was 102%; in that of `COc1ccc([N+](=O)[O-])cc1NC(=O)Nc1ccc(Cl)c(Cl)c1` [CBK267593], 99.5%; in that of `Cc1nc(NC(=O)Cc2c(C)nn(CC(C)C)c2C)sc1-c1n[nH]c(=S)n1C` [CBK296691], 88.6%. Same read-out and setting: in the case of `CN1CCN(CCCNC(=O)N2CCN(c3ccccc3)CC2)CC1` [CBK155168] it was 101%.

Turning to `COC(=O)c1sccc1NS(=O)(=O)c1ccccc1C(F)(F)F` [CBK034717], the viability at 28.5 h, 10 µM came to 108%. Same read-out and setting: the figure for `O=C(/C=C/c1ccc(C(=O)Nc2cccnc2)cc1)Nc1cccnc1` [CBK265617] is 66.7%.

On to `O=C1CC(c2ccccc2)CC(=O)C1=CNCCN1CCOCC1` (stereo not drawn) [CBK262522], for which the viability at 28.5 h, 10 µM is 94%. Still for that read-out and setting: the figure for `O=C1CN(C(=O)Nc2ccc(Cl)cc2)CCN1` [CBK155861] is 81.3%. The same measure, in the same setting: the figure for `N#C/C(=C/c1ccc(-c2ccc(S(N)(=O)=O)cc2)o1)c1nc2ccccc2s1` [CBK264480] is 83.8%; for `Cc1cc2c(N3CCN(Cc4nc5ccccc5[nH]4)CC3)ncnc2s1` [CBK268213C] it is 101%. Same read-out and setting: the figure for `N#CC(c1ccc(O)cc1)N1CCOCC1` (stereo not drawn) [CBK261659] is 116%. With `O=C(O)c1ccc(N2CCCCS2(=O)=O)cc1Cl` [CBK287142], the viability at 28.5 h, 10 µM was 84.5%.

On to `N#Cc1nccnc1N1CCN(Cc2ccc3c(c2)OCO3)CC1` [CBK011284], for which the viability at 28.5 h, 10 µM is 83.3%. Still for that read-out and setting: the figure for `CCC(C)(C)C(=O)Nc1ccc(Cl)nc1` [CBK091334] is 96.4%.

In the case of `CC(C)(CO)NC(=O)c1cc(S(=O)(=O)N2CCOCC2)ccc1Cl` [CBK269748], the viability at 28.5 h, 10 µM is 94%. Same read-out and setting: the figure for `CC(Cc1nc(-c2cnnn2C)cs1)n1cc(Cl)cn1` (stereo not drawn) [CBK304245] is 99.6%; for `O=C(O)CNS(=O)(=O)c1cc(Br)c(Cl)s1` [CBK034455] it is 114%; for `Cn1ccc(C2=C(N)C(C#N)C3=C(CC(C)(C)CC3=O)O2)c1` (stereo not drawn) [CBK022168] it is 109%. Take `Cc1ccc(NC(=O)Cc2ccncc2)c(C)n1` [CBK200385]: the viability at 28.5 h, 10 µM is 90%. Turning to `COc1ccc(-c2nc(-c3cc4ccccc4s3)cnc2N)cc1OC` [CBK063963], the viability at 28.5 h, 10 µM was 98.6%. As for `O=C(c1cccnc1)N1CCN(CC2(c3ccccc3)CC2)CC1` [CBK282906], the viability at 28.5 h, 10 µM is 94.5%. Still for that read-out and setting: the figure for `c1csc(CN2CCC[C@H]2c2nc(-c3ccc(-n4ccnc4)nc3)no2)c1` [CBK288895] is 111%; for `CCC(C)(C)c1ccc(S(=O)(=O)N(C)CCC#N)cc1` [CBK043395] it is 118%.

For the compound `CCS(=O)(=O)N1CCC(C(=O)NC2CC(C)(C)Oc3ccccc32)CC1` (stereo not drawn) [CBK304364], the viability at 28.5 h, 10 µM stood at 90.1%. Still for that read-out and setting: the figure for `O=C(O)C(Cc1cc2ccccc2[nH]1)N1C(=O)C2CC=C(Cl)CC2C1=O` (stereo not drawn) [CBK266216] is 94.2%; for `O=C(c1cc(C(F)(F)F)cc(C(F)(F)F)c1)N1CCN(Cc2ccc3c(c2)OCO3)CC1` [CBK074756] it is 98.2%. On the same count and under the same terms, the figure for `O=C(Nc1ccc(Cl)nc1)C(F)(F)F` [CBK091339] is 101%. Regarding `COCCN1C(=O)c2ccc(C(=O)c3ccc4c(c3)C(=O)N(CCOC)C4=O)cc2C1=O` [CBK268641], the viability at 28.5 h, 10 µM stood at 113%.

With `CCc1nccnc1OC` [CBK089673], the viability at 28.5 h, 10 µM is 101%. On the same count and under the same terms, in the case of `Cc1cc(NC(=O)c2ccc3ccccc3c2)nc2c1c(=O)oc1ccccc12` [CBK291122] it was 117%; in that of `COc1ccc(Oc2nccnc2N2CCN(Cc3ccc([N+](=O)[O-])cc3)CC2)cc1OC` [CBK083046T], 86.4%. On the same count and under the same terms, in the case of `O=C(NCc1ccc(-c2csnn2)cc1)c1ccco1` [CBK149289] it was 89%; in that of `Cc1c(F)cccc1CNCC1CCN(C(=O)OC(C)(C)C)CC1` [CBK056717], 85.7%. Still for that read-out and setting: the figure for `CC(C)(C)c1cc(C(=O)N2CCn3cc(C(F)(F)F)nc3C2)[nH]n1` [CBK284748] is 87.7%. For `COCCNC(=O)N1CCN(c2ccccc2)CC1` [CBK155181], the viability at 28.5 h, 10 µM was 96.1%. Same read-out and setting: the figure for `COc1ccc(Oc2c(C)n[nH]c2-c2ccc(O)cc2O)cc1` [CBK288239] is 96%; for `O=C(O)c1cc(Cl)c(OCc2cc(-c3ccccc3)no2)c(Cl)c1` [CBK295297] it is 86.7%. Take `COc1ccc(CNC(=O)Cn2nnc(-c3ccc(NC(=O)C4CCCCC4)cc3)n2)cc1` [CBK135876]: the viability at 28.5 h, 10 µM came out at 101%.

As for `CC(=O)N(C)Cc1cccc(Nc2ncnc3c2cnn3CCO)c1` [CBK305979], the viability at 28.5 h, 10 µM is 96.1%.

With `O=c1cc(O)c2ccccc2n1Cc1ccccc1Cl` [CBK291255], the viability at 28.5 h, 10 µM turned out to be 93.4%. Regarding `COc1ccc(-c2nnc(SCc3cc(=O)oc4cc(C)ccc34)n2CC(C)C)cc1` [CBK297518], the viability at 28.5 h, 10 µM was 81.3%.

Consider `CC(C)C(=O)N1CCC2(CC1)OCc1cc(Cl)ccc1O2` [CBK061121], for which, for the setting “bulk resorufin, single well”, the viability at 28.5 h, 10 µM is 89.6%. In the case of `COCc1cn([C@H]2CO[C@H]3[C@@H]2OC[C@H]3OC(=O)Nc2ccc(C)cc2)nn1` [CBK289489], the viability at 28.5 h, 10 µM was found to be 90.6%. Still for that read-out and setting: the figure for `Cc1cc(O)cc(=O)n1Cc1cccnc1` [CBK291123] is 112%; for `CCn1c(C)cc2cc(NS(=O)(=O)c3ccc4[nH]c(=O)[nH]c(=O)c4c3)ccc21` [CBK286363] it is 104%.

Consider `Cc1n[nH]c(O)c1C(c1ccc(OC(=O)c2ccccc2)cc1)c1c(C)n[nH]c1O` [CBK265019], for which the viability at 28.5 h, 10 µM came to 109%. Same read-out and setting: in the case of `CCN(CC(=O)Nc1ccc(OC)c(Cl)c1)S(=O)(=O)c1ccc2ccccc2c1` [CBK267910] it was 92.9%. Take `Cc1cc(COc2ccnc(N3CCCN(CC4CC4)CC3)n2)no1` [CBK084073]: the viability at 28.5 h, 10 µM amounted to 91.1%. On the same count and under the same terms, in the case of `Cc1cccc(OCC(=O)NCCCc2ccccc2)c1C` [CBK265507] it was 99.9%; in that of `CCc1ncc(C(=O)N(Cc2ccccn2)CC2CCCO2)cn1` (stereo not drawn) [CBK307077], 95.1%. Same read-out and setting: the figure for `O=C(CN1C2CCC1CC(O)(c1ccccc1F)C2)NCC1CC1` (stereo not drawn) [CBK281942] is 93.4%; for `CCCCOc1nccnc1-c1cnc(OC)nc1OC` [CBK106756] it is 98.8%. On the same count and under the same terms, the figure for `OCc1cc(Cl)c(Cl)c(CO)c1O` [CBK269397] is 95.5%.

Regarding `O=C(O)CNC(=O)CN1C(=O)c2cc(Cl)c(Cl)cc2C1=O` [CBK287156], the viability at 28.5 h, 10 µM was 92.3%.

For `OC1(c2cccnc2F)CCN(Cc2c(F)cccc2F)CC1` [CBK283149], the viability at 28.5 h, 10 µM is 107%. On the same count and under the same terms, the figure for `Oc1ccccc1/C=N/Nc1nnc(-c2ccccc2)c(-c2ccccc2)n1` [CBK262003] is 93%; for `CCNC(=O)C1(Cc2ccccc2-c2ccccc2C)CCN(C(=O)c2ccccc2)CC1` [CBK285716] it is 96.6%. Still for that read-out and setting: in the case of `Cc1nn(Cc2ccccc2)c(C)c1CC(=O)NCCn1ccnc1` [CBK282095] it was 107%; in that of `COC(=O)C(NC(=O)c1cnc(-c2cccc(C(F)(F)F)c2)c(-c2ccncc2)c1)c1ccccc1` (stereo not drawn) [CBK037624], 98.9%; in that of `CCCCSc1nc(N)cc(N2CCC3(CCNC(=O)CC3)CC2)n1` [CBK307001], 98.2%.

With `CCc1cccc(NC(=O)NCCC2=CCCCC2)c1` [CBK045009], the viability at 28.5 h, 10 µM turned out to be 108%.

As for `CC(C)[C@H](CO)Nc1nc(-c2ccc(CCC(=O)O)cc2)cn2ccnc12` [CBK037522], the viability at 28.5 h, 10 µM was 92.7%.

On to `O=C(CCN1CCOCC1)Nc1ccc(Br)cc1C(=O)c1ccccc1` [CBK263165], for which the viability at 28.5 h, 10 µM was determined as 93%.
